Patent US20250243488A1, “METHODS OF MODULATING PROGRANULIN EXPRESSION USING ANTISENSE OLIGONUCLEOTIDES TARGETING REGULATORY RNAS” (Camp4 Therapeutics Corporation, priority 2022, published 2025)
Oligonucleotides are written 5' to 3', each unit as a sugar letter and its base; * is a phosphorothioate linkage, no mark a phosphodiester; rarer units and linkages stand in square brackets, end groups in braces. Plain capitals give the bases only. e = 2'-O-(2-methoxyethyl) (MOE); l = locked nucleic acid (LNA); [5mC] = 5-methylcytosine; d = 2'-deoxy (DNA)

Test system: GRN mRNA
Test: GRN mRNA qPCR in SK-N-AS cells transfected with ASOs
Format: cell-based, human
Details: SK-N-AS
Description: The best ASOs based on increased GRN mRNA fold-change were selected for further characterization in dose titration studies. Briefly, human neuroblastoma SK-N-AS cells were transfected with 20 to 160 nM of ASOs CO-3423, CO-3431, CO-3463, and CO-3503. A steric non-targeting control ASO (sNTC) was used as a control. Cells were collected for mRNA analysis after 48 hours and GRN mRNA quantified by qPCR. Housekeeping genes for normalization were GAPDH and PPIA, and mRNA fold change (FC) was normalized to sNTC.
36 additional ASOs were designed with different modifications and base walking around selected ASOs. The effect of increasing doses of these ASOs was assessed in the human neuroblastoma cell line SK-N-AS following transfection. Relative GRN mRNA levels in SK-N-AS cells after treatment was assessed 48-hours post-transfection, and data from exemplary ASOs is shown in FIGS. 5A and 5B.
Additional chemical modifications, including LNA, modifications were made to CO-3423. SK-N-AS cells were transfected with increasing concentrations of the LNA/PS modified ASOs and GRN mRNA quantified by qPCR. ASOs including different LNA modifications of CO-3423 had similar efficacy (i.e, similar increased GRN mRNA expression). GRN mRNA was normalized to the average fold-change of cells treated with two steric non-targeting control ASOs (CO-3772 and CO-1589 (sNTC1)).
The effect of ASO length on GRN gene expression modulation was also investigated. SK-N-AS cells were transfected with increasing concentrations of the longer ASOs and GRN mRNA quantified by qPCR. Increasing the length of CO-3423 increased the potency of the ASO, as shown in Table 4. mRNA was normalized to the average fold change of cells treated with two steric non-targeting control ASOs (CO-3772 and CO-1589 (sNTC1)).
To determine whether variations in the PO/PS internucleotide bond linkages impacted the ability of CO-3423 and CO-3431 to modulate gene expression, several modified ASOs based on these parent ASOs were prepared. SK-N-AS cells were transfected with increasing concentrations of the mixed PO/PS bond ASOs described in Tables 5 and 6, and GRN mRNA quantified by qPCR.
GRN mRNA fold-change after treatment with mixed PO/PS bond versions of CO-3423 is shown in Table 5. mRNA was normalized to the average fold change of cells treated with steric nontargeting controls (CO-3772, CO-1589 (sNTC1), and CO-1929 (sNTC3)).
GRN mRNA fold-change after treatment with mixed PO/PS bond versions of CO-3431 is shown in Table 6. mRNA was normalized as described above.
To further assess the effect of additional modifications on the ability of CO-3423 parent ASO to modulate GRN gene expression, additional LNA tiling and PO bond modifications were incorporated to CO-3423. SK-N-AS cells were transfected with increasing concentrations of the modified ASOs and GRN mRNA quantified by qPCR. CO-3423 was used for comparison. GRN mRNA was normalized to the average fold-change of cells treated with a steric non-targeting control ASO, CO-1589 (sNTC1).
To further assess the effect of modifications on the ability of CO-3463 parent ASO to modulate GRN gene expression, ASOs based on this ASOS incorporating additional LNA modifications were prepared and compared to […]. SK-N-AS cells were transfected with increasing concentrations of the ASOs and GRN mRNA quantified by qPCR. GRN mRNA was normalized to the average fold-change of cells treated with a steric non-targeting control ASO, CO-1589 (sNTC1).
68 additional ASOs were designed to target intergenic enhancers (eRNA). 48 hours post-transfection, the cells were collected for GRN mRNA analysis using qPCR. CO-1589, a steric nontargeting control ASO, was used as a control. GRN mRNA was normalized to cells treated with CO-1589.
The best hits from these ASOs were tested in a dose escalation study. Cells were incubated for 48 hours. Subsequently, the cells were collected for mRNA quantification via RT-qPCR. […]

[1] = Table 4, normalized to CO-3772 and CO-1589 (sNTC1)
[2] = Table 4, 120 nM, normalized to CO-3772 and CO-1589 (sNTC1)
[3] = Table 10, 48 hours, normalized to CO-1589
[4] = Table 3, normalized to CO-3772 and CO-1589 (sNTC1)
[5] = Table 3, 120 nM, normalized to CO-3772 and CO-1589 (sNTC1)
[6] = Table 13, normalized to CO-1589
[7] = Table 13, 120 nM, normalized to CO-1589
[8] = Table 7, normalized to CO-1589 (sNTC1)
[9] = Table 5, normalized to CO-3772, CO-1589 and CO-1929
[10] = Table 6, normalized to CO-3772, CO-1589 and CO-1929

Row | Substance | 30 nM FC (GRN mRNA) [1] [FC] | 60 nM FC (GRN mRNA) [1] [FC] | 120 nM FC (GRN mRNA) [2] [FC] | 30 nM FC (GRN mRNA) [4] [FC] | 60 nM FC (GRN mRNA) [4] [FC] | 120 nM FC (GRN mRNA) [5] [FC] | also measured
1 | CO-4124: GRN paRNA-targeting ASO; longer ASO related to CO-3423 (antisense eG*eA*e[5mC]*eT*eT*eG*eG*eG*eA*eG*eT*eG*eG*eT*eG*eA*e[5mC]*eT*eG*eA) | 1.2 | 1.7 | 1.7 | – | – | – | hGRN mRNA FC (Table 9, 120 nM, 48 hours post-transfection, normalized to CO-1589): 1.3 FC; 3.75 nM FC (GRN mRNA) (Table 10, 3.75 nM, 48 hours, normalized to CO-1589): 1.0 FC; 7.5 nM FC (GRN mRNA) [3]: 1.0 FC; 15 nM FC (GRN mRNA) (Table 10, 15 nM, 48 hours, normalized to CO-1589): 1.0 FC; 30 nM FC (GRN mRNA) [3]: 1.2 FC; 60 nM FC (GRN mRNA) [3]: 1.4 FC; 120 nM FC (GRN mRNA) (Table 10, 120 nM, 48 hours, normalized to CO-1589): 1.9 FC
2 | CO-4353: LNA/PS modified ASO based on CO-3423 (antisense eG*eG*eA*e[5mC]*eT*lT*dG*dG*lG*dA*dG*lT*dG*dG*lT*eG*eA*e[5mC]*eT*eG) | – | – | – | 1.4 | 1.4 | 1.8 | –
3 | CO-4354: LNA/PS modified ASO based on CO-3423 (antisense eG*eG*eA*l[5mC]*eT*lT*eG*lG*eG*lA*eG*lT*eG*lG*eT*lG*eA*l[5mC]*eT*eG) | – | – | – | 1.6 | 1.9 | 1.9 | –
4 | CO-4355: LNA/PS modified ASO based on CO-3423 (antisense eG*eG*lA*e[5mC]*lT*eT*lG*eG*lG*eA*lG*eT*lG*eG*lT*eG*lA*e[5mC]*eT*eG) | – | – | – | 1.6 | 1.8 | 1.9 | –
5 | CO-4356: LNA/PS modified ASO based on CO-3423 (antisense eG*eG*lA*e[5mC]*eT*lT*eG*eG*lG*eA*eG*lT*eG*eG*lT*eG*eA*l[5mC]*eT*eG) | – | – | – | 1.6 | 1.8 | 2.2 | –
6 | CO-4357: LNA/PS modified ASO based on CO-3423 (antisense eG*eG*eA*e[5mC]*lT*eT*eG*eG*lG*eA*eG*eT*lG*eG*eT*eG*lA*e[5mC]*eT*eG) | – | – | – | 1.5 | 1.7 | 2.4 | –
7 | CO-4358: LNA/PS modified ASO based on CO-3423 (antisense eG*eG*eA*l[5mC]*eT*eT*eG*lG*eG*eA*eG*lT*eG*eG*eT*lG*eA*e[5mC]*eT*eG) | – | – | – | 1.5 | 1.9 | 2.0 | –
8 | CO-4360: LNA/PS modified ASO based on CO-3423 (antisense eG*eG*eA*e[5mC]*lT*eT*eG*eG*eG*lA*eG*eT*eG*eG*lT*eG*eA*e[5mC]*eT*eG) | – | – | – | 1.4 | 1.8 | 2.5 | –
9 | CO-4361: longer ASO based on CO-3423 (antisense eG*eA*e[5mC]*eT*eT*dG*dG*dG*dA*dG*dT*dG*dG*dT*dG*eA*e[5mC]*eT*eG*eA) | 1.1 | 1.3 | 1.6 | – | – | – | –
10 | CO-4362: longer ASO based on CO-3423 (antisense eG*eA*e[5mC]*eT*eT*dG*dG*dG*eA*dG*dT*eG*dG*dT*dG*eA*e[5mC]*eT*eG*eA) | 1.1 | 1.1 | 1.4 | – | – | – | –
11 | CO-4363: longer ASO based on CO-3423 (antisense eG*eG*eA*e[5mC]*eT*eT*eG*eG*eG*eA*eG*eT*eG*eG*eT*eG*eA*e[5mC]*eT*eG*eA) | 1.3 | 2.2 | 1.8 | – | – | – | 30 nM FC (GRN mRNA) [6]: 1.6 FC; 60 nM FC (GRN mRNA) [6]: 1.7 FC; 120 nM FC (GRN mRNA) [7]: 1.7 FC
12 | CO-4364: longer ASO based on CO-3423 (antisense eG*eG*eA*e[5mC]*eT*eT*eG*eG*eG*eA*eG*eT*eG*eG*eT*eG*eA*e[5mC]*eT*eG*eA*eA*e[5mC]) | 1.1 | 1.3 | 1.6 | – | – | – | 7.5 nM FC (GRN mRNA) [8]: 1.1 FC; 13 nM FC (GRN mRNA) (Table 7, 13 nM, normalized to CO-1589 (sNTC1)): 1.2 FC; 30 nM FC (GRN mRNA) [8]: 1.7 FC; 60 nM FC (GRN mRNA) [8]: 2.1 FC; 120 nM FC (GRN mRNA) (Table 7, 120 nM, normalized to CO-1589 (sNTC1)): 1.9 FC; 150 nM FC (GRN mRNA) (Table 7, 150 nM, normalized to CO-1589 (sNTC1)): 2.3 FC; 30 nM FC (GRN mRNA) [6]: 1.1 FC; 60 nM FC (GRN mRNA) [6]: 1.5 FC; 120 nM FC (GRN mRNA) [7]: 1.6 FC
13 | CO-4453: mixed PO/PS bond version of CO-3423 (antisense eG*eG*eAe[5mC]eT*eT*eG*eG*eG*eA*eG*eT*eG*eG*eT*eGeAe[5mC]*eT*eG) | – | – | – | – | – | – | 30 nM FC (GRN mRNA) [9]: 1.4 FC; 60 nM FC (GRN mRNA) [9]: 1.9 FC; 120 nM FC (GRN mRNA) (Table 5, 120 nM, normalized to CO-3772, CO-1589 and CO-1929): 1.9 FC
14 | CO-4455: mixed PO/PS bond version of CO-3431 (antisense eA*eT*eTeGe[5mC]*eA*eG*eT*eG*eA*e[5mC]*eG*e[5mC]*e[5mC]*e[5mC]*e[5mC]eGeT*eT*eA) | – | – | – | – | – | – | 30 nM FC (GRN mRNA) [10]: 0.5 FC; 60 nM FC (GRN mRNA) [10]: 0.4 FC; 120 nM FC (GRN mRNA) (Table 6, 120 nM, normalized to CO-3772, CO-1589 and CO-1929): 0.4 FC
